# Measurements from ChEMBL document CHEMBL1201862, “PubChem BioAssay data set” (2004).
#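 Test compounds were applied to cells in 96-well plates for 48 hours at 5 doses. The concentration for 50% growth inhibition is given as GI50.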 Activity calls are given as the source filed them. Cut-off read from the data, not from the text of the source: active = GI50 up to about 1.1 µM and inactive = higher.
# Experiments:
# Assay in all cases: DTP human tumour cell line panel, 48 h
# [1] = system: LOX IMVI
# [2] = system: SK-MEL-28
# [3] = system: HCC 2998
# [4] = system: BT-549
# [5] = system: SK-MEL-5
# [6] = system: EKVX
# [7] = system: HT-29
# [8] = system: Malme-3M
# [9] = system: NCI-H226
# [10] = system: SF-268
# [11] = system: MCF7
# [12] = system: PC-3
# [13] = system: A498
# [14] = system: SNB-75
# [15] = system: HOP-62
# [16] = system: A549
# [17] = system: CCRF-CEM
# [18] = system: IGROV-1
# [19] = system: OVCAR-3
# [20] = system: ACHN
SMILES,GI50 [1],GI50 [2],GI50 [3],GI50 [4],GI50 [5],GI50 [6],GI50 [7],GI50 [8],GI50 [9],GI50 [10],GI50 [11],GI50 [12],GI50 [13],GI50 [14],GI50 [15],GI50 [16],GI50 [17],GI50 [18],GI50 [19],GI50 [20]
CCC(=O)Oc1c2ccsc2c(OC(=O)CC)c2ccsc12,0.0661 µM (active),0.178 µM (active),1.93 µM (inactive),0.174 µM (active),0.0753 µM (active),0.871 µM (active),2.41 µM (inactive),0.039 µM (active),2.06 µM (inactive),0.518 µM (active),1.45 µM (inactive),0.339 µM (active),3.1 µM (inactive),0.184 µM (active),0.849 µM (active),2.05 µM (inactive),0.478 µM (active),1.95 µM (inactive),0.351 µM (active),0.419 µM (active)
CCc1c[n+]([O-])c(C)cc1[N+](=O)[O-],> 100 µM (inactive),> 100 µM (inactive),24.3 µM (inactive),> 100 µM (inactive),> 100 µM (inactive),29.6 µM (inactive),82.8 µM (inactive),40.1 µM (inactive),,> 100 µM (inactive),90.8 µM (inactive),> 100 µM (inactive),> 100 µM (inactive),78.3 µM (inactive),> 100 µM (inactive),56.1 µM (inactive),> 100 µM (inactive),> 100 µM (inactive),> 100 µM (inactive),17.7 µM (inactive)
C=C1CC2(CCOc3ccc(Cl)cc32)OC1=O (centres undefined),2.44 µM (inactive),8.38 µM (inactive),22.5 µM (inactive),0.352 µM (active),5.02 µM (inactive),3.42 µM (inactive),5.86 µM (inactive),,2.81 µM (inactive),6.22 µM (inactive),0.598 µM (active),1.95 µM (inactive),11.9 µM (inactive),3.61 µM (inactive),5.35 µM (inactive),13.5 µM (inactive),1.45 µM (inactive),8.57 µM (inactive),1.39 µM (inactive),4.86 µM (inactive)
O=C(O)c1c2c(cc3c1CC1(Cc4ccccc4C1)C3)CCC2,24.8 µM (inactive),> 100 µM (inactive),> 100 µM (inactive),20.8 µM (inactive),59.7 µM (inactive),40.6 µM (inactive),73.8 µM (inactive),51.3 µM (inactive),> 100 µM (inactive),> 100 µM (inactive),96.2 µM (inactive),> 100 µM (inactive),> 100 µM (inactive),> 100 µM (inactive),> 100 µM (inactive),35.6 µM (inactive),23.3 µM (inactive),59.4 µM (inactive),68.1 µM (inactive),32.7 µM (inactive)
O=C1c2c(O)cccc2C(C(=O)CCCC(=O)C2c3cccc(O)c3C(=O)c3c(O)cccc32)c2cccc(O)c21,0.194 µM (active),0.538 µM (active),0.278 µM (active),0.524 µM (active),0.259 µM (active),0.608 µM (active),0.746 µM (active),0.789 µM (active),0.456 µM (active),0.248 µM (active),0.598 µM (active),0.0787 µM (active),0.957 µM (active),0.448 µM (active),0.612 µM (active),0.393 µM (active),0.202 µM (active),0.415 µM (active),0.158 µM (active),0.378 µM (active)
C[C@H](NC(=O)c1ccc(CNC(=O)/C=C/c2cccc(Oc3ccccc3)c2)cc1)c1ccccc1,> 100 µM (inactive),80.9 µM (inactive),> 100 µM (inactive),> 100 µM (inactive),58.5 µM (inactive),> 100 µM (inactive),> 100 µM (inactive),> 100 µM (inactive),32.7 µM (inactive),> 100 µM (inactive),> 100 µM (inactive),> 100 µM (inactive),73.6 µM (inactive),15.2 µM (inactive),36.9 µM (inactive),55.8 µM (inactive),> 100 µM (inactive),> 100 µM (inactive),> 100 µM (inactive),57.9 µM (inactive)
Oc1ccc(SCc2ccc(NCc3ccccc3)cc2)cc1,19.9 µM (inactive),63.8 µM (inactive),25.2 µM (inactive),31.8 µM (inactive),20.7 µM (inactive),19.4 µM (inactive),20 µM (inactive),31.7 µM (inactive),98.2 µM (inactive),39.4 µM (inactive),29.8 µM (inactive),18.9 µM (inactive),20.1 µM (inactive),21.6 µM (inactive),46.6 µM (inactive),22.1 µM (inactive),1.24 µM (inactive),45.5 µM (inactive),30 µM (inactive),24 µM (inactive)
Cc1nc2ccccc2n1Cc1ccc(NC(=S)NC2CCCCC2)cc1,10.6 µM (inactive),29.7 µM (inactive),36.6 µM (inactive),15.4 µM (inactive),4.14 µM (inactive),12.3 µM (inactive),30.3 µM (inactive),21.7 µM (inactive),24.9 µM (inactive),17.2 µM (inactive),4.86 µM (inactive),31.3 µM (inactive),33.6 µM (inactive),24 µM (inactive),> 75 µM (inactive),17.4 µM (inactive),10 µM (inactive),20 µM (inactive),10.8 µM (inactive),4.49 µM (inactive)
COc1cc(-c2oc3c(OC)c(O)c(OC)c(O)c3c(=O)c2OC)ccc1O,26.9 µM (inactive),56.8 µM (inactive),45.3 µM (inactive),37.9 µM (inactive),29.8 µM (inactive),78.7 µM (inactive),68.1 µM (inactive),34.7 µM (inactive),34.9 µM (inactive),,28.9 µM (inactive),48.9 µM (inactive),37.3 µM (inactive),,23.1 µM (inactive),65.3 µM (inactive),35.2 µM (inactive),25.4 µM (inactive),24.3 µM (inactive),41.9 µM (inactive)
CCOC(=O)C(Cc1cccn1C(=O)OC(C)(C)C)[N+](=O)[O-] (centres undefined),17.5 µM (inactive),27.4 µM (inactive),21 µM (inactive),30.8 µM (inactive),21.2 µM (inactive),48.3 µM (inactive),22.3 µM (inactive),28.1 µM (inactive),26.1 µM (inactive),33.9 µM (inactive),37.7 µM (inactive),20.7 µM (inactive),23.5 µM (inactive),23.7 µM (inactive),23.9 µM (inactive),32 µM (inactive),17.1 µM (inactive),21.5 µM (inactive),32.1 µM (inactive),22.3 µM (inactive)
NC1=NCCN1CC(=O)O [CYCLOCREATINE],> 1000 µM (inactive),> 1000 µM (inactive),> 1000 µM (inactive),> 1000 µM (inactive),> 1000 µM (inactive),> 10000 µM (inactive),> 1000 µM (inactive),> 1000 µM (inactive),> 1000 µM (inactive),4990 µM (inactive),> 1000 µM (inactive),> 1000 µM (inactive),> 1000 µM (inactive),,> 1000 µM (inactive),> 1000 µM (inactive),> 1000 µM (inactive),> 1000 µM (inactive),> 1000 µM (inactive),> 1000 µM (inactive)
COc1cc2c3cc1Oc1c(OC)c(OC)cc4c1C(Cc1ccc(O)c(c1)Oc1ccc(cc1)CC3N(C)CC2)N(C)CC4 (centres undefined),58.7 µM (inactive),64.4 µM (inactive),15.8 µM (inactive),23.1 µM (inactive),20 µM (inactive),27.9 µM (inactive),31.3 µM (inactive),59.2 µM (inactive),49.9 µM (inactive),24.3 µM (inactive),45.9 µM (inactive),31.3 µM (inactive),23.7 µM (inactive),23.3 µM (inactive),64.6 µM (inactive),26.3 µM (inactive),17.2 µM (inactive),39.8 µM (inactive),,17.3 µM (inactive)
CCOP(=O)(OCC)/C(C#N)=C/c1nccn1C,> 100 µM (inactive),> 100 µM (inactive),> 100 µM (inactive),> 100 µM (inactive),,> 100 µM (inactive),> 100 µM (inactive),,> 100 µM (inactive),> 100 µM (inactive),> 100 µM (inactive),> 100 µM (inactive),> 100 µM (inactive),> 100 µM (inactive),> 100 µM (inactive),> 100 µM (inactive),> 100 µM (inactive),,> 100 µM (inactive),> 100 µM (inactive)
CCCCCCCCCCCCCCCCS(=O)(=O)c1ccc(NN)cc1,4.29 µM (inactive),> 10 µM (inactive),> 10 µM (inactive),> 10 µM (inactive),> 10 µM (inactive),> 10 µM (inactive),> 10 µM (inactive),> 10 µM (inactive),,9.38 µM (inactive),> 10 µM (inactive),2.83 µM (inactive),> 10 µM (inactive),,> 10 µM (inactive),5.27 µM (inactive),1.63 µM (inactive),> 10 µM (inactive),8.81 µM (inactive),> 10 µM (inactive)
